US10300155B2, “Alpha-synuclein ligands” (Washington University, priority 2015, dated 2019)
pEC50, pKi: −log10 of the molar value. Several values for one entry are separate records, joined by “and”; a condition that tells them apart may be missing. Equal values may be shown once. Read-outs that look alike come from different tables or passages of the source.

Assays:
[1] = biological target: tau fibrils (Homo sapiens, UniProt P10636); experiment: ThT competitive assay for tau fibrils (Table 3); format: binding; set-up: made in house; host or cells: E. coli; details: for EC50: tau fibrils
tau fibrils, sequence (P10636 560-692 limits assumed): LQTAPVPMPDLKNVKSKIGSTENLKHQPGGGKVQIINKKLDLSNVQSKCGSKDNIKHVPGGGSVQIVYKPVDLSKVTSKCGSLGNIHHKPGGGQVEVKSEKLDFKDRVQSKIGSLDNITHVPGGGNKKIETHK
Procedure: Tau fibril recombinant protein was produced in E. coli. Additional preparation was performed in a similar fashion to Example 115.

[2] = biological target: T1, α-synuclein fibrils (Homo sapiens, UniProt P37840); experiment: ThT competitive assay for α-synuclein fibrils (Table 1); format: binding; details: for EC50: α-synuclein fibrils
T1 construct: made in house; host or cells: E. coli BL21(DE3)RIL
Procedure: Upon binding to amyloid fibrils, a peak at approximately 440 nm becomes dominant with the fluorescent emission maximum shifted to 480 nm. This is accompanied by a strong enhancement of the fluorescence.
α-Synuclein recombinant protein was produced in E. coli. […] Freshly transformed BL21 colonies were inoculated into 2 L baffled flasks containing 250 mL sterilized TB (1.2% bactotryptone, 2.4% yeast extract, 0.4% glycerol, 0.17 M KH2PO4, 0.72 M K2HPO4) with 50 μg/ml ampicillin, and incubated overnight at 37° C. with shaking.
To determine the concentration of fibrils, the reaction mixture (100 μL) was centrifuged at 18,000×g for 10 minutes to separate fibrils from monomer. The α-synuclein monomer and other soluble proteins in the supernatant were removed, and the fibril pellet was resuspended in 100 μL solution of Tris-HCl (20 mM) and NaCl (100 mM). This fibril suspension was used in a bicinchoninic acid (BCA) protein assay along with a bovine serum albumin (BSA) standard curve to determine the concentration of fibrils in the 72 hour fibril reaction mixture.
To prepare the fibrils for performing binding assays, the fibril reaction mixture prepared above was centrifuged at 18,000×g for 10 minutes.
Once the ThT-α-synuclein saturation binding curve and dissociation constant (Kd) were determined the competitive assay for determining the binding affinity of various test compounds was conducted. […] The mixture was incubated at room temperature for 60 minutes on the shaking plate. The fluorescent intensity for each cell was measured by the fluorescence reader at λex and λem. The Ki value for each compound was calculated by the corresponding inhibition curve.
The Ki values were derived from the EC50 values using the Cheng-Prusoff equation: Ki=EC50/(1+[radioligand]/Kd). See FIGS. 17.1-31.2 for the inhibition curves for each compound in the ThioT competitive binding assay.

[3] = biological target: T1, α-synuclein fibrils; experiment: Thioflavin T competition assay (Example 130, Table 9), α-synuclein fibrils; format: binding
Procedure: Freshly transformed BL21 colonies were inoculated into 2 L baffled flasks containing 250 ml sterilized TB (1.2% bactotryptone, 2.4% yeast extract, 0.4% glycerol, 0.17 M KH2PO4, 0.72 M K2HPO4) with 50 μg/ml ampicillin, and incubated overnight at 37° C. with shaking.
Competition assays used a fixed concentration of α-syn, Aβ, or tau fibrils (1 μM), consisting of 3 μM, 50 nM and 4 μM of ThioflavinT respectively. […] To optimize the determination of selectivity, assays for all three fibril species were set up in parallel using a common set of intermediate compound dilutions for each analog. Reactions were incubated at room temperature for 1.5 h before quantifying bound ligand as described above for the saturation binding assay. […] All data points were performed in triplicate. Nonspecific fluorescence was measured in parallel reactions containing ThioT plus each concentration of competitor but no fibrils, and these measurements were subtracted from the reactions with fibrils to yield fibril-specific fluorescence. Data were analyzed using Graphpad. Prism software (version 4.0) to obtain EC50 values by fitting the data to the equation Y=bottom+(top-bottom)/(1+10^(x−log EC50)).

[4] = Biodistribution in male Balb/C mice; format: in vivo; details: for Biodistribution: Blood / Biodistribution: Bone / Biodistribution: Brain / Biodistribution: Fat / Biodistribution: Heart / Biodistribution: Kidney / Biodistribution: Liver / Biodistribution: Lung / Biodistribution: Muscle / Biodistribution: Pancreas / Biodistribution: Spleen: tail vein, mean ± SD, n = 4
Procedure: For the biodistribution studies, 100˜130 μCi of [^11C] TZ-20-35 in ˜100 μL of 10% ethanol/saline solution (v/v) was injected via the tail vein into mature male Balb/C mice (19-24 g) under anesthesia (2.5% isoflurane in oxygen at a flow rate of 1 mL/min). A group of at least four […] were used for each time point. […] The whole brain was quickly harvested. At the same time, samples of blood, heart, lung, liver, spleen, pancreas, kidney, muscle, fat, and tail were dissected. All the tissue samples were collected in tared tubes and counted in an automated gamma counter (Beckman Gamma 8000 well counter) with standards, prepared by diluting the injectate. The counted tissues were then weighed, and the % ID/g was calculated (Table 4).

[5] = average, read-out: Ki (nM) Tau (avg)
[6] = individual determinations, read-out: Ki (nM) Tau
[7] = average, read-out: EC50m (nM) EC50 (avg)
[8] = individual determinations, read-out: EC50m (nM) EC50
[9] = average, read-out: Ki (nM) α-syn (avg)
[10] = individual determinations, read-out: Ki (nM) α-syn
[11] = average, read-out: EC50 (nM) EC50 (avg)
[12] = individual determinations, read-out: EC50 (nM) EC50
[13] = average, read-out: α-synuclein EC50 (avg)
[14] = average, read-out: α-synuclein Ki (avg)

## COc1ccc(/C=C/c2ccsc2)cc1 [TZ-34-28]
[1]; [5]
  Ki: 876 nM
[1]; [6]
  Ki: 600 nM and 1150 nM
[1]; [7]
  EC50: 2150 nM
[1]; [8]
  EC50: 1470 nM and 2830 nM
[2]; [9]
  Ki: 172 nM
[2]; [10]
  Ki: 43.1 nM and 167 nM and 113 nM and 104 nM and 256 nM and 347 nM
[2]; [11]
  EC50: 449 nM
[2]; [12]
  EC50: 113 nM and 437 nM and 297 nM and 271 nM and 670 nM and 907 nM

## COc1cc(/C=C/c2ccc3cc(O)ccc3n2)ccn1 [TZ-36-146]
[1]; [5]
  Ki: 113 nM
[1]; [6]
  Ki: 124 nM and 102 nM
[1]; [7]
  EC50: 278 nM
[1]; [8]
  EC50: 305 nM and 251 nM
[3]; [13]
  pEC50: 6.48
[3]; [14]
  pKi: 6.90
[2]; [9]
  Ki: 127 nM
[2]; [11]
  EC50: 332 nM

## O=C(Nc1ccc(OCCC[18F])cc1)c1ccc(/C=C/c2ccncc2)cc1 [[^18F]TZ-23-92]
[4]; 5 min post injection
  Biodistribution: Blood: 2.40 ± 0.39 % ID/g
  Biodistribution: Bone: 3.31 % ID/g and 3.31 ± 0.74 % ID/g
  Biodistribution: Brain: 1.51 % ID/g and 1.52 ± 0.18 % ID/g
  Biodistribution: Fat: 1.79 ± 0.55 % ID/g
  Biodistribution: Heart: 2.93 ± 0.34 % ID/g
  Biodistribution: Kidney: 11.17 ± 0.41 % ID/g
  Biodistribution: Liver: 52.44 ± 3.84 % ID/g
  Biodistribution: Lung: 7.70 ± 0.85 % ID/g
  Biodistribution: Muscle: 1.47 ± 0.16 % ID/g
  Biodistribution: Pancreas: 2.03 ± 0.19 % ID/g
  Biodistribution: Spleen: 23.73 ± 4.54 % ID/g
[4]; 30 min post injection
  Biodistribution: Blood: 2.42 ± 0.19 % ID/g
  Biodistribution: Bone: 39.47 % ID/g and 39.48 ± 10.28 % ID/g
  Biodistribution: Brain: 1.55 % ID/g and 1.56 ± 0.08 % ID/g
  Biodistribution: Fat: 1.34 ± 0.30 % ID/g
  Biodistribution: Heart: 2.19 ± 0.19 % ID/g
  Biodistribution: Kidney: 9.10 ± 0.34 % ID/g
  Biodistribution: Liver: 14.47 ± 1.13 % ID/g
  Biodistribution: Lung: 2.30 ± 0.25 % ID/g
  Biodistribution: Muscle: 1.30 ± 0.16 % ID/g
  Biodistribution: Pancreas: 1.87 ± 0.23 % ID/g
  Biodistribution: Spleen: 1.69 ± 0.15 % ID/g
[4]; 60 min post injection
  Biodistribution: Blood: 0.84 ± 0.05 % ID/g
  Biodistribution: Bone: 68.78 % ID/g and 68.78 ± 6.75 % ID/g
  Biodistribution: Brain: 1.46 % ID/g and 1.46 ± 0.16 % ID/g
  Biodistribution: Fat: 0.58 ± 0.13 % ID/g
  Biodistribution: Heart: 0.90 ± 0.07 % ID/g
  Biodistribution: Kidney: 3.87 ± 0.36 % ID/g
  Biodistribution: Liver: 7.00 ± 0.33 % ID/g
  Biodistribution: Lung: 0.83 ± 0.05 % ID/g
  Biodistribution: Muscle: 0.55 ± 0.06 % ID/g
  Biodistribution: Pancreas: 0.98 ± 0.08 % ID/g
  Biodistribution: Spleen: 0.61 ± 0.04 % ID/g
[4]; 120 min post injection
  Biodistribution: Blood: 0.32 ± 0.02 % ID/g
  Biodistribution: Bone: 70.20 % ID/g and 70.20 ± 15.04 % ID/g
  Biodistribution: Brain: 1.0 % ID/g and 1.00 ± 0.11 % ID/g
  Biodistribution: Fat: 0.29 ± 0.10 % ID/g
  Biodistribution: Heart: 0.31 ± 0.02 % ID/g
  Biodistribution: Kidney: 1.67 ± 0.23 % ID/g
  Biodistribution: Liver: 3.50 ± 0.48 % ID/g
  Biodistribution: Lung: 0.36 ± 0.03 % ID/g
  Biodistribution: Muscle: 0.33 ± 0.26 % ID/g
  Biodistribution: Pancreas: 0.61 ± 0.13 % ID/g
  Biodistribution: Spleen: 0.24 ± 0.01 % ID/g
[4]; judged from brain uptake at 5 min
  crossing of the blood brain barrier: can cross BBB and enter the brain

## COc1ccc2nc(/C=C/c3ccoc3)ccc2c1 [TZ-36-54]
[3]; [13]
  pEC50: 6.75
[3]; [14]
  pKi: 7.16
[3]; individual determinations, read-out: α-synuclein EC50
  pEC50: 6.77 and 6.73
[3]; individual determinations, read-out: α-synuclein Ki
  pKi: 7.19 and 7.14
[2]; [9]
  Ki: 68.5 nM
[2]; [10]
  Ki: 65 nM and 72 nM
[2]; [11]
  EC50: 178 nM
[2]; [12]
  EC50: 169 nM and 188 nM

## COc1ccc(NC(=O)c2ccc(/C=C/c3ccncc3)cc2)cc1 [[^11C]TZ-20-83]
[4]; 5 to 60 min post injection
  brain uptake and washout (assessment in words): brain uptake and washout aren't significant
[4]; 5 min post injection
  Biodistribution: Blood: 1.93 ± 0.15 % ID/g
  Biodistribution: Brain: 1.93 % ID/g and 1.93 ± 0.29 % ID/g
  Biodistribution: Fat: 1.94 ± 0.20 % ID/g
  Biodistribution: Heart: 2.31 ± 0.37 % ID/g
  Biodistribution: Kidney: 17.55 ± 2.61 % ID/g
  Biodistribution: Liver: 37.98 ± 3.78 % ID/g
  Biodistribution: Lung: 11.22 ± 0.59 % ID/g
  Biodistribution: Muscle: 1.18 ± 0.24 % ID/g
  Biodistribution: Pancreas: 3.09 ± 0.39 % ID/g
  Biodistribution: Spleen: 18.77 ± 3.38 % ID/g
[4]; 30 min post injection
  organ recovery: 58%
  Biodistribution: Blood: 1.59 ± 0.42 % ID/g
  Biodistribution: Brain: 1.63 % ID/g and 1.63 ± 0.33 % ID/g
  Biodistribution: Fat: 1.73 ± 0.36 % ID/g
  Biodistribution: Heart: 1.79 ± 0.35 % ID/g
  Biodistribution: Kidney: 9.98 ± 1.76 % ID/g
  Biodistribution: Liver: 17.94 ± 3.86 % ID/g
  Biodistribution: Lung: 4.10 ± 0.96 % ID/g
  Biodistribution: Muscle: 1.17 ± 0.23 % ID/g
  Biodistribution: Pancreas: 5.10 ± 1.09 % ID/g
  Biodistribution: Spleen: 3.49 ± 0.84 % ID/g
[4]; 60 min post injection
  organ recovery: 38%
  Biodistribution: Blood: 1.56 ± 0.12 % ID/g
  Biodistribution: Brain: 1.25 % ID/g and 1.25 ± 0.11 % ID/g
  Biodistribution: Fat: 1.05 ± 0.22 % ID/g
  Biodistribution: Heart: 1.48 ± 0.05 % ID/g
  Biodistribution: Kidney: 5.82 ± 0.47 % ID/g
  Biodistribution: Liver: 13.36 ± 1.75 % ID/g
  Biodistribution: Lung: 2.93 ± 0.22 % ID/g
  Biodistribution: Muscle: 0.92 ± 0.14 % ID/g
  Biodistribution: Pancreas: 6.96 ± 0.51 % ID/g
  Biodistribution: Spleen: 3.21 ± 0.76 % ID/g
